{"source": "patent US12116343B2", "about": "“Inhibitors of APOL1 and methods of using same” (Vertex Pharmaceuticals Incorporated, priority 2020, dated 2024)"}
{"biological_target": "T1, G1 APOL1 (Homo sapiens, UniProt O14791, I384M/S342G)", "T1 construct": "expressed in transfected cells", "T1 sequence (O14791 28-398 S342G/I384M)": "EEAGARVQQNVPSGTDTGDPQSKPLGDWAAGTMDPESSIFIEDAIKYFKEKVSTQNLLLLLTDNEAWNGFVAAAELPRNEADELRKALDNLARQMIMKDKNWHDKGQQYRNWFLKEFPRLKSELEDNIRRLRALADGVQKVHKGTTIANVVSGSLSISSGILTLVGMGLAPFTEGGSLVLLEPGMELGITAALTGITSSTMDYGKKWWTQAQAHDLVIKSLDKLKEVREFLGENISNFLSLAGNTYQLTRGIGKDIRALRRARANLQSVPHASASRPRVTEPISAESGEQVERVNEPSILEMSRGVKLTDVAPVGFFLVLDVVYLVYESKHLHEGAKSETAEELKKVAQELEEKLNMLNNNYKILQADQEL", "assay": "Acute APOL1 Thallium Assay with inducible stable clones of HEK 293 cells", "format": "cell-based", "conditions": "Table 24, Compounds 287 to 465; read-out: Thallium Assay (IC50)", "in_short": "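Readout: Tl+-triggered fluorescence, FLIPR, reflecting potassium flux through APOL1 pores after cells take up an AM-ester thallium indicator. Cells: HEK T-Rex stable clone G1 DC3.25, APOL1 G1 induced by tetracycline, seeded 26000 per well.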", "units": {"IC50": "µM"}}
{"smiles": "CC[C@H](NCC1CC(c2c(-c3ccc(F)cc3)[nH]c3c(F)cc(F)cc23)C1)C(=O)NCC(F)(F)F", "note": "(stereo partly drawn) [Compound 443]", "IC50": "> 1"}
{"smiles": "CN1CCN(C(=O)CNCC2CC(c3c(-c4ccc(F)cc4)[nH]c4c(F)cc(F)cc34)C2)CC1", "note": "(stereo not drawn) [Compound 444]", "IC50": "> 1"}
{"smiles": "NC(=O)CNC[C@H]1C[C@H](c2c(-c3ccc(F)cc3)[nH]c3c(F)cc(F)cc32)C1", "note": "[Compound 445, 2-((((1r,3r)-3-(5,7-difluoro-2-(4-fluorophenyl)-1H-indol-3-yl)cyclobutyl)methyl)amino)acetamide]", "IC50": "< 0.25"}
{"smiles": "CNC(=O)CNC[C@H]1C[C@H](c2c(-c3ccc(F)cc3)[nH]c3c(F)cc(F)cc32)C1", "note": "[Compound 446]", "IC50": "< 0.25"}
{"smiles": "O=C(CNC[C@H]1C[C@H](c2c(-c3ccc(F)cc3)[nH]c3c(F)cc(F)cc32)C1)NCO", "note": "[Compound 448]", "IC50": "< 0.25"}
{"smiles": "O=C(CNC[C@H]1C[C@H](c2c(-c3ccc(F)cc3)[nH]c3c(F)cc(F)cc32)C1)NC1CC1", "note": "[Compound 449]", "IC50": "0.25 to 1"}
{"smiles": "CON(C)C(=O)CNC[C@H]1C[C@H](c2c(-c3ccc(F)cc3)[nH]c3c(F)cc(F)cc32)C1", "note": "[Compound 450]", "IC50": "0.25 to 1"}
{"smiles": "CC(C)NC(=O)CNC[C@H]1C[C@H](c2c(-c3ccc(F)cc3)[nH]c3c(F)cc(F)cc32)C1", "note": "[Compound 451]", "IC50": "> 1"}
{"smiles": "O=C(CC1CC(c2c(-c3ccc(F)cc3)[nH]c3c(F)cc(F)cc23)C1)NC1(CO)CCC1", "note": "(stereo not drawn) [Compound 452, 2-[3-[5,7-difluoro-2-(4-fluorophenyl)-1H-indol-3-yl]cyclobutyl]-N-[1-(hydroxymethyl)cyclobutyl]acetamide]", "IC50": "> 1"}
{"smiles": "O=C(CC1CC(c2c(-c3ccc(F)cc3)[nH]c3c(F)cc(F)cc23)C1)NC1(CO)CC1", "note": "(stereo not drawn) [Compound 453]", "IC50": "0.25 to 1"}
{"smiles": "C[C@H](CO)NC(=O)CC1CC(c2c(-c3ccc(F)cc3)[nH]c3c(F)cc(F)cc23)C1", "note": "(stereo partly drawn) [Compound 454]", "IC50": "> 1"}
{"smiles": "O=C(CC1CC(c2c(-c3ccc(F)cc3)[nH]c3c(F)cc(F)cc23)C1)N[C@H]1CCNC1=O", "note": "(stereo partly drawn) [Compound 456]", "IC50": "> 1"}
{"smiles": "O=C(CC1CC(c2c(-c3ccc(F)cc3)[nH]c3c(F)cc(F)cc23)C1)N[C@@H]1CCNC1=O", "note": "(stereo partly drawn) [Compound 457]", "IC50": "> 1"}
{"smiles": "C[C@@H](CO)NC(=O)CC1CC(c2c(-c3ccc(F)cc3)[nH]c3c(F)cc(F)cc23)C1", "note": "(stereo partly drawn) [Compound 458]", "IC50": "> 1"}
{"smiles": "O=C(CC1CC(c2c(-c3ccc(F)cc3)[nH]c3c(F)cc(F)cc23)C1)NCCO", "note": "(stereo not drawn) [Compound 459]", "IC50": "> 1"}
{"smiles": "COCCNC(=O)CC1CC(c2c(-c3ccc(F)cc3)[nH]c3c(F)cc(F)cc23)C1", "note": "(stereo not drawn) [Compound 460]", "IC50": "> 1"}
{"smiles": "O=C(CC1CC(c2c(-c3ccc(F)cc3)[nH]c3c(F)cc(F)cc23)C1)N[C@H](CO)C(F)(F)F", "note": "(stereo partly drawn) [Compound 461]", "IC50": "> 1"}
{"smiles": "O=C(CC1CC(c2c(-c3ccc(F)cc3)[nH]c3c(F)cc(F)cc23)C1)N[C@@H](CO)C(F)(F)F", "note": "(stereo partly drawn) [Compound 462]", "IC50": "> 1"}
{"smiles": "C[C@H](CO)NC(=O)C1CCC(c2c(-c3ccc(F)cc3)[nH]c3c(F)cc(F)cc23)C1", "note": "(stereo partly drawn) [Compound 463, 3-[5,7-difluoro-2-(4-fluorophenyl)-1H-indol-3-yl]-N-[(1R)-2-hydroxy-1-methyl-ethyl]cyclopentanecarboxamide]", "IC50": "> 1"}
{"smiles": "CCNC(=O)N1CC(c2c(-c3ccc(F)cc3)[nH]c3c(F)cc(F)cc23)C1", "note": "[Compound 464, 3-[5,7-difluoro-2-(4-fluorophenyl)-1H-indol-3-yl]-N-ethyl-azetidine-1-carboxamide]", "IC50": "0.25 to 1"}
{"smiles": "O=C(NCC(F)F)N1CC(c2c(-c3ccc(F)cc3)[nH]c3c(F)cc(F)cc23)C1", "note": "[Compound 465, 3-(5,7-difluoro-2-(4-fluorophenyl)-1H-indol-3-yl)-N-(2,2-difluoroethyl)azetidine-1-carboxamide]", "IC50": "0.25 to 1"}
